Entries after “also recorded” stand apart in the source; their conditions may differ. Square brackets hold non-standard residues; d marks the D form. Ends that are not written are not given here. βAla = NCCC(=O)O
Tests used:
human W9-hESCs = type: cell-based; conditions: 300 nM AMD3100, normoxic and OGD conditions
Description: Experiments with human embryonic stem cells (hESC) were carried out in accordance with the guidelines and regulations of the NHMRC and with the approval of the Austin Health Human Research Ethics Committee (Approval number H2008/03194), and University of Melbourne Human Research Ethics Committee (Approval number 0605017). H9 (WA-09, WiCell) cell lines were grown as previously described (Dottori & Pera, 2007).
Briefly, hESC were cultured on mitomycin-C treated mouse embryonic fibroblasts (MEFs) in hESC medium consisting of high-glucose Dulbecco's Modified Eagle Medium (DMEM) without sodium pyruvate, supplemented with 1% insulin/transferrin/selenium, 0.1 mM β-mercaptoethanol, 1% nonessential amino acids (NEAA), 2 mM glutamine, 25 U/ml penicillin, 25 μg/ml streptomycin (all from Invitrogen) and 20% fetal calf serum (FCS) (Hyclone).
Alternatively, hESC were cultured on mitomycin-C treated human foreskin fibroblasts (HFF; ATCC, CRL-2097) in KSR media consisting of DMEM/nutrient mixture F-12, supplemented with 0.1 mM […], 1% nonessential amino acids (NEAA), 2 mM glutamine, 25 U/ml penicillin, 25 μg/ml streptomycin and 20% knockout serum replacement (all from Invitrogen).
All cells were cultured at 37° C. in 5% CO2 with 100% humidity. Colonies were mechanically dissected every 7 days (subcultivated or passaged) and transferred to freshly prepared MEFs or HFFs. Media was changed every second day.
Neuronal differentiation was achieved using the noggin induction method described for mouse neurospheres as adapted by Dottori for human neurospheres (Dottori & Pera, 2007). The colonies were maintained at 37° C., with 5% CO2 in hESC medium supplemented with 500 ng/ml of Noggin for 14 days while replacing Noggin every other day.
At this point, the cells were washed with PBS and the colonies were again mechanically dissociated, but this time the central (differentiated) part of the colony was also cut into smaller pieces using a 26-gauge needle. The pieces were transferred to individual wells in a low adherent 96-well plate containing Neurobasal®A (NBM) (Invitrogen) supplemented with 1× X B-27® (Invitrogen) and 1× N-2 (Invitrogen) 20 ng/ml human recombinant EGF and 20 ng/ml human recombinant bFGF (Pharmacia). Media was changed every 2 to 3 days to allow neurosphere formation over 2 weeks.
In order to facilitate neuronal differentiation, neurospheres were again separated into smaller pieces under a dissection microscope, and three to four pieces were transferred to each well of a 96-well plate. Prior to this transfer, the plate was pre-coated with poly-D-lysine (10 μg/ml in PBS), washed in PBS, recoated with mouse laminin (5 μg/ml in PBS), and washed again. The cells were then grown for 11 days (with media changed every two days) in NBM lacking growth factors prior to induction of injury and assessment of hypothermia.
On the day of experiments, the medium was changed to NBM+N2 containing a B27 preparation lacking the usual antioxidants (Invitrogen; 10889-038) to eliminate their confounding effects (NBM-AO).
To maintain isoosmotic pressure conditions, 25 mM 2-deoxy-D-glucose was added to NBM-AO medium and equilibrated for 30 minutes at room temperature before the initial media change as described above. […] Culture supernatant was removed after this 4 hour period and stored at 4° C. until analysed for lactate dehydrogenase (LDH) activity.
The media was replaced with fresh NBM-AO and the cells were incubated for a further 20 hours containing drug, before again measuring LDH. Oxidative stress was induced by adding 50 μM fresh H2O2 (Sigma, H1009) to the growth factor negative NBM on initiation of the experiment with continued culture for 4 hours when LDH was measured and NBM-AO without H2O2 was returned to the culture which was maintained for a further 20 hours before again measuring LDH.

cerebellar granule cells = experiment: Survival of cerebellar microexplants under glutamate and 3-NP toxicity; type: cell-based, Wistar rats; conditions: for block of NNZ-4921 neuronal survival-promoting activity: glutamate and 3-NP toxicity, 48 hours, eotaxin-3 10 and 100 nM, AMD3100 300 nM, co-administered with NNZ-4921
Description: Glass coverslips were obtained from New Zealand BioLabs, size 18 mm×18 mm. The coverslips were placed in a 150 mm Petri dish, at 8 cover slips per dish. Both sides of the coverslips were soaked and washed in absolute ethanol. The ethanol was discarded, and autoclaved MilliQ® was added to rinse both sides of coverslips. The water was then discarded, and the coverslips were air dried under the laminar flow.
Poly-D-lysine (PDL) was obtained from Sigma (P7280, lyophilized powder, γ-irradiated, average mol wt 30,000-70,000, cell culture tested). This was diluted with autoclaved PBS to make a stock solution of 1 mg/ml. The stock solution was divided into aliquots of 500 μl/tube and stored at −20° C.
For experiments, the stock solution of PDL was diluted with PBS 1:10 to make working solution of with a final concentration of 100 μg/ml. Approximately 100 μl of the PDL working solution was added to the coverslips and this was incubated at 34° C. for 2 hours (minimum) to overnight.
Next, more than 10 ml autoclaved MilliQ® was added into each Petri dish and the PDL-coated coverslips were rinsed. The coverslips were then transferred to 6 well culture plates. After air drying, the plates were wrapped in foil and stored at 4° C. until use. Storage was possible for up to 2 weeks.
Rat pups were used for this experiment (Wistar rats), either P3/4 or P7/8.
For extraction of P3/4 cerebellar cortices, 0.5 ml of ice-cold PBS/0.65% D(+)-glucose buffer was placed into a Petri dish and the tissue was placed into this solution. For extraction of P7/8 cerebellar cortices, 1.0 ml of ice-cold PBS/0.65% D(+)-glucose buffer was placed into a Petri dish and the tissue was placed into this solution.
The laminated cerebellar cortex was removed surgically and stored immediately in ice-cold PBS/0.65% D(+)-glucose buffer using the amounts as noted above. The cortex was then transferred to a Petri dish, and the meninges were removed from the cerebellar. The tissue was sliced by scissors, and passed once (P3/P4 pups) or twice (P7/P8 pups) through a 23-gauge sized needle attached to a 1 cc syringe to obtain uniformly sized microexplants. This was set aside in a Petri dish.
Next, the tissue was transferred into a 15 ml Falcon tube and centrifuged for 2 minutes at 350 rpm, at 4° C. The PBS/Glu(+) buffer was carefully discarded using a pipette. The pellet was resuspended in cold Neurobasal® medium (Invitrogen), at 1 ml per pup. This was centrifuged for 2 minutes at 350 rpm (60XG), at 4° C.
The medium was discarded and the pellet was resuspended in warm Neurobasal® medium, at 0.5 ml per P3/4 pup and 1.5 ml per P7/8 pup. This was then seeded on PDL-coated cover slips in 6 well plates at a volume of 40-45 μl per coverslip.
The coverslips were incubated at 34° C., in 5% CO2, with 100% humidity for 45 minutes to 1.5 hours to allow adherence. Then, 1 ml of Neurobasal® medium was added per well and the microexplants were checked under a microscope for adherence.
The toxins 3-nitropropionic acid and glutamate were prepared at 100× concentrations. For 50 mM 3-nitropropionic acid (Sigma), the stock solution was titrated with NaOH to a pH value of 7-7.2. For 50 mM L-glutamate, this was dissolved under heat (hot water).
As a negative control, 10 μl of 3-nitropropionic acid and 10 μl of glutamate was administered (4 wells). As a positive control, 20 μl of PBS was administered to normoxic microexplants without any toxins (4 wells). […]

[1] = molecular target: T1, homodimeric CXCR4 receptor (Homo sapiens, UniProt P61073); experiment: 125I-SDF-1 displacement binding study (CEREP); conditions: recombinant homodimeric CXCR4 expressing HEK293 cells; unlabelled peptide in competition
T1 construct: host or cells: HEK293
T1 sequence (P61073 whole entry): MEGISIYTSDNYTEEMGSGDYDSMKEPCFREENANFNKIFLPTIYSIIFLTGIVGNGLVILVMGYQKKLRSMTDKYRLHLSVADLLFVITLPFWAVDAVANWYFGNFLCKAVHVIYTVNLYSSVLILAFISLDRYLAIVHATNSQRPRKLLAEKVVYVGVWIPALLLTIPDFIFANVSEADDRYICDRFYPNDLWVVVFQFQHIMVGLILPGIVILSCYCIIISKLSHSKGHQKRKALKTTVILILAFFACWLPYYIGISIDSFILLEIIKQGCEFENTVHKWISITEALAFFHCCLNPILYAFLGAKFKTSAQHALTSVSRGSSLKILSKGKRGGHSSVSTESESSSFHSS
Description: This was determined by radioactive ^125I-SDF-1 displacement studies using CXCR4 homodimeric receptors and unlabelled NNZ-4921 and NRP2945 in competition.

neuronal stem cells = conditions: cited from earlier work
[2] = molecular target: T2, homodimeric CXCR4 receptor (recombinant, expressed in HEK293 cells) (UniProt P61073 1-352, limits assumed); experiment: 125I-SDF-1 displacement on HEK293 cells expressing recombinant homodimeric CXCR4 (CEREP)
T2 construct: whole, on cells; also called CXCR4 homodimeric receptors; homodimeric CXCR4 receptor complex
T2 sequence (P61073 whole entry): as above

For `c1cc(CN2CCCNCCNCCCNCC2)ccc1CN1CCCNCCNCCCNCC1` [AMD3100, reference compound], which “toxicity on W9-hESCs” value (human W9-hESCs) is on record?
The value was “did not show any toxicity”.

What about the “block of NNZ-4921 neuronal survival-promoting activity” value (cerebellar granule cells) of the same molecule?
The value was “completely block”.

For “GRRAAPGR-β-Ala-GG (GRRAAPGR[βAla]GG) [NRP2983, synthetic 11-mer peptidomimetic closely related to NRP2945]”, which “promotion of survival of cultivated cerebellar cells” value (cerebellar granule cells; 1fM NRP2983, oxidatively stressed cerebellar microexplants) is on record?
Its value is 70%.

Which results are given for GRRAAPGRAGG [NNZ-4921]?
displacement of 125I-SDF-1 from homodimeric CXCR4 receptor [1]: not able to displace the radioactive ligand SDF-1; activity of NNZ-4921 in reducing cell death in presence of eotaxin-3 in combination with AMD3100 (cerebellar granule cells; 10 fM or 100 fM NNZ-4921): completely blocked

Which “EC50 values for chemoattraction” value (neuronal stem cells; SDF-1) does the source give for “SDF-1: natural ligand for the CXCR4 receptor” here?
Its value is “lower nanomolar range”.

And the “minimal concentration required to chemoattract neuronal stem cells” value (neuronal stem cells; Xu and Heilshorn, 2012)?
Its value is 9 nM.

Which results are given for “eotaxin-3: human recombinant eotaxin-3 (Pharmaco), ligand of the CCR3 receptor, partial agonist”?
block of NNZ-4921 neuronal survival-promoting activity (cerebellar granule cells): abrogation of the neuroprotective effect; also recorded: completely blocked; effect of eotaxin-3 alone on neuronal survival (cerebellar granule cells; without NNZ-4921, normoxic or oxidative/excitotoxic stress conditions): no toxic effect; also recorded: no effect on the overall neuronal survival rate

Does GRRAAPGRAGG [NNZ-4921] bind [2]?
Result: no binding
